Key:
BaF3_EGFRWT cells = BaF3_EGFRWT cells (Homo sapiens, UniProt P00533); experiment: Cell growth inhibition assay (CellTiterGlo), BaF3_EGFRWT; assay type: cell-based; details: 3-day treatment, CellTiterGlo, read-out: Cell growth inhibition activity, EGFR WT
BaF3_HER2YVMA cells = BaF3_HER2YVMA cells (Homo sapiens, UniProt P04626, DUP772-775, cells depend on it); experiment: Cell growth inhibition assay (CellTiterGlo), BaF3_HER2YVMA; assay type: cell-based; details: 3-day treatment, CellTiterGlo, read-out: Cell growth inhibition activity, HER2 - YVMA
wtEGFR = target: T1, wtEGFR (Homo sapiens, UniProt P00533); experiment: HotSpot radiometric kinase activity assay, wtEGFR; details: biochemical activity, 4 nM wtEGFR, 10 μM 33P-ATP, 2 hours, read-out: EGFR WT IC50
T1 construct: purchased Invitrogen PR7295B
Method: (§1) The purpose of the wtERBB2, ERBB2-A775_G776insYVMA (ERBB2YVMA), wtEGFR biochemical assay was to evaluate the inhibition (% inhibition and IC50 values) of the small molecule inhibitors by using the “HotSpot” radiometric kinase activity assay. HotSpot assays monitor the production of kinase substrate by the radioactive gamma phosphate of adenosine triphosphate (33P-ATP) during biochemical reactions. HotSpot assays was performed in steps upon completion of the kinase reaction: deposition of a reaction mixture aliquot onto P81 ion exchange paper, extensive washing of the aforementioned P81 paper using phosphoric acid to remove unbound radiolabeled 33P-ATP from the P81 paper, and finally visualization and quantification of the dried P81 paper utilizing a phosphoimager. […] Typical reaction solutions (10 μL, final reaction volume) contained the following buffer conditions: 20 mM Hepes (pH 7.5), 10 mM MgCl2, 1 mM EGTA, 0.01% Brij35, 0.02 mg/mL BSA, 0.1 mM Na3VO4, 2 mM DTT, 1% DMSO. The assay was primed by preparing a fresh 0.2 mg/mL solution of pEY (Sigma Cat: P7244) substrate in the reaction buffer and supplementing that solution with […] of MnCl2 as substrate cofactor (Sigma Cat: M9522). The kinase of interest was then added to the solution at the appropriate concentration (30 nM wtERBB2 from, or 20 nM ERBB2YVMA, or 4 nM wtEGFR) and gently mixed prior to delivery of compound in 100% DMSO by acoustic dispensing (Beckman Echo550). Compound, Kinase, and substrate were allowed to incubate for 20 min at room temperature prior to the initiation of the reaction by addition of 33P-ATP (PerkinElmer Cat: NEG602, final conc 10 μM). […] IC50 determinations were made from a plot of kinase activity as a function of inhibitor concentration fit to the 4-parameter IC50 equation with the enzyme concentration held constant using GraphPad Prism (San Diego).

[1] = target: T2, ERBB2-A775_G776insYVMA (ERBB2YVMA) (Homo sapiens, UniProt P04626, INS775YVMA); experiment: HotSpot radiometric kinase activity assay, ERBB2YVMA; details: biochemical activity, 20 nM ERBB2YVMA, 10 μM 33P-ATP, 2 hours, read-out: HER2 - YVMA IC50
T2 construct: purchased SignalChem E27-13BG
Method: as §1

BaF3_HER2WT cells = BaF3_HER2WT cells (Homo sapiens, UniProt P04626); experiment: Cell growth inhibition assay (CellTiterGlo), BaF3_HER2WT; assay type: cell-based; details: 3-day treatment, CellTiterGlo, read-out: Cell growth inhibition activity, HER2 WT

BaF3_EGFRWT cells, sequence (P00533 whole entry, change not shown): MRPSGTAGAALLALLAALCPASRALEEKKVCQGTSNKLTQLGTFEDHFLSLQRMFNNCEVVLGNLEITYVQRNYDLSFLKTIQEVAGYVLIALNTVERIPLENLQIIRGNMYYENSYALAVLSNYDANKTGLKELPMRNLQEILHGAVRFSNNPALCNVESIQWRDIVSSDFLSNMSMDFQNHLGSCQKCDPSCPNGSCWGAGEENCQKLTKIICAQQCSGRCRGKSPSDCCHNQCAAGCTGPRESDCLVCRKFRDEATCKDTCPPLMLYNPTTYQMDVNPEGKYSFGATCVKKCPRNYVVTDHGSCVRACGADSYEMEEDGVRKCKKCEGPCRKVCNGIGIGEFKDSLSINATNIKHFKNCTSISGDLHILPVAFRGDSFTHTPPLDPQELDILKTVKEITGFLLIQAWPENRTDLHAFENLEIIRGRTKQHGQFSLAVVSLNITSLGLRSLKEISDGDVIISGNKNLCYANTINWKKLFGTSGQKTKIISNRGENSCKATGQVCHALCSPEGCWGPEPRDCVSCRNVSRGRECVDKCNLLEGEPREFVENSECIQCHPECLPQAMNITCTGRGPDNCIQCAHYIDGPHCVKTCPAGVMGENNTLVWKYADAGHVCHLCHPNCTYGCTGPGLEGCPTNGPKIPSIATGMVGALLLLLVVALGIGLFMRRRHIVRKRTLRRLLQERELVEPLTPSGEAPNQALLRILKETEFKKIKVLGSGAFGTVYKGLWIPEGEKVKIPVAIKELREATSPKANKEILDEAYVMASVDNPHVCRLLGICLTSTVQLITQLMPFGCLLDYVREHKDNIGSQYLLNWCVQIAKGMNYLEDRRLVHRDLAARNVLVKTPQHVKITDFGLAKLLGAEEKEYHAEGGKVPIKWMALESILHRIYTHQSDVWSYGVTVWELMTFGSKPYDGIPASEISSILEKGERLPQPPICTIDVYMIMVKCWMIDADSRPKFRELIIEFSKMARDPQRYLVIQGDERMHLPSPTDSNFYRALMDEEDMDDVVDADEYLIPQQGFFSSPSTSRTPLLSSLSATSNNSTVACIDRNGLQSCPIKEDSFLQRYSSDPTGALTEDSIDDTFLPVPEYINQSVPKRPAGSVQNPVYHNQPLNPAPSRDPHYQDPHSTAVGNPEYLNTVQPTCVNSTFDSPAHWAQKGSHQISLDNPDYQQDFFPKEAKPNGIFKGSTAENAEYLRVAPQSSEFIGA
T1 sequence (P00533 25-1210): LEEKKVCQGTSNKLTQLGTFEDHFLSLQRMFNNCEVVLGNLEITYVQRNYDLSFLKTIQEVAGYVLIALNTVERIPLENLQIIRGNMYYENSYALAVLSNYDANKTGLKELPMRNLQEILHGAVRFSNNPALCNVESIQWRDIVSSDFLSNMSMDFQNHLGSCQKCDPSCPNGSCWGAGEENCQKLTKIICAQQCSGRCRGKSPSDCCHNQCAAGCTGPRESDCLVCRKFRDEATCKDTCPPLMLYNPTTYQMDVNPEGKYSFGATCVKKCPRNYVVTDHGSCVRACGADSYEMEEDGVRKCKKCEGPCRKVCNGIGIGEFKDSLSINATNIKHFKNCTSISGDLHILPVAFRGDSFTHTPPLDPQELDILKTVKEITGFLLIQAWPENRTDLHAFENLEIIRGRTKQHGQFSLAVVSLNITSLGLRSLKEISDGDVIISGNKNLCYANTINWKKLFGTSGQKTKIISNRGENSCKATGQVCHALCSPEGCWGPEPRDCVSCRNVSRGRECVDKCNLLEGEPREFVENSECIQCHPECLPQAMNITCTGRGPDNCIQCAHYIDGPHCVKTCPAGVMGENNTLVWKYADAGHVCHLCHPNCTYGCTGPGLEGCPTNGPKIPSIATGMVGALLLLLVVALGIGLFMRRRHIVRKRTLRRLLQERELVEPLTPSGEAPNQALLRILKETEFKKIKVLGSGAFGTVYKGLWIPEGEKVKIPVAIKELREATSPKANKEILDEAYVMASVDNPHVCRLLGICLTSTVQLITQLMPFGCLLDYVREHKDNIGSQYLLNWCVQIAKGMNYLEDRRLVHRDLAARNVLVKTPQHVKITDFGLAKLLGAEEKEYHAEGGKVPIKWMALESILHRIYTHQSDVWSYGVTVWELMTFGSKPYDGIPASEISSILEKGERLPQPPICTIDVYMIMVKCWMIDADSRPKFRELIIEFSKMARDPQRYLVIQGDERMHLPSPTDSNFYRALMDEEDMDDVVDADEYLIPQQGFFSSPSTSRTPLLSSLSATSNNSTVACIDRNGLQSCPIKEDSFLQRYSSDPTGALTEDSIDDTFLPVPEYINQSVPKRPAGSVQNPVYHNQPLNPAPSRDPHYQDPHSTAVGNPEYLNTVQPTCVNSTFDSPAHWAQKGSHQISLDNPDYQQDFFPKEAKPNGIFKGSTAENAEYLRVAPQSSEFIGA
T2 sequence (P04626 with tags, fused parts or gaps INS775YVMA limits assumed): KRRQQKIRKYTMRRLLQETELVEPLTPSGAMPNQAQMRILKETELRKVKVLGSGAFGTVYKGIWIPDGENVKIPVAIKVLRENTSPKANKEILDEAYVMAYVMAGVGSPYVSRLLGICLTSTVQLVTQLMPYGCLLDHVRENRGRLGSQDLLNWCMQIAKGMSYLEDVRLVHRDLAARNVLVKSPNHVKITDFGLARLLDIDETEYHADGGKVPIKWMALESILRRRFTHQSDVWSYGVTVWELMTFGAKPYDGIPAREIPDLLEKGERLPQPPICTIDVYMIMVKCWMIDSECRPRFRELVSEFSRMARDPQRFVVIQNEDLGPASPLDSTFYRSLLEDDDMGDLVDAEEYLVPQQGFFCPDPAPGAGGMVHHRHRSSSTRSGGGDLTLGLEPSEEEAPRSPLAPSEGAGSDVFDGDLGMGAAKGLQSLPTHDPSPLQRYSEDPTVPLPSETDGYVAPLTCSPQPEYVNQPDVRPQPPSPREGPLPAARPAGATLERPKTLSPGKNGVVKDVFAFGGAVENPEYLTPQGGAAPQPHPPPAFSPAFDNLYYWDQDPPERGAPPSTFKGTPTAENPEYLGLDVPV
BaF3_HER2YVMA cells, sequence (P04626 with tags, fused parts or gaps DUP772-775): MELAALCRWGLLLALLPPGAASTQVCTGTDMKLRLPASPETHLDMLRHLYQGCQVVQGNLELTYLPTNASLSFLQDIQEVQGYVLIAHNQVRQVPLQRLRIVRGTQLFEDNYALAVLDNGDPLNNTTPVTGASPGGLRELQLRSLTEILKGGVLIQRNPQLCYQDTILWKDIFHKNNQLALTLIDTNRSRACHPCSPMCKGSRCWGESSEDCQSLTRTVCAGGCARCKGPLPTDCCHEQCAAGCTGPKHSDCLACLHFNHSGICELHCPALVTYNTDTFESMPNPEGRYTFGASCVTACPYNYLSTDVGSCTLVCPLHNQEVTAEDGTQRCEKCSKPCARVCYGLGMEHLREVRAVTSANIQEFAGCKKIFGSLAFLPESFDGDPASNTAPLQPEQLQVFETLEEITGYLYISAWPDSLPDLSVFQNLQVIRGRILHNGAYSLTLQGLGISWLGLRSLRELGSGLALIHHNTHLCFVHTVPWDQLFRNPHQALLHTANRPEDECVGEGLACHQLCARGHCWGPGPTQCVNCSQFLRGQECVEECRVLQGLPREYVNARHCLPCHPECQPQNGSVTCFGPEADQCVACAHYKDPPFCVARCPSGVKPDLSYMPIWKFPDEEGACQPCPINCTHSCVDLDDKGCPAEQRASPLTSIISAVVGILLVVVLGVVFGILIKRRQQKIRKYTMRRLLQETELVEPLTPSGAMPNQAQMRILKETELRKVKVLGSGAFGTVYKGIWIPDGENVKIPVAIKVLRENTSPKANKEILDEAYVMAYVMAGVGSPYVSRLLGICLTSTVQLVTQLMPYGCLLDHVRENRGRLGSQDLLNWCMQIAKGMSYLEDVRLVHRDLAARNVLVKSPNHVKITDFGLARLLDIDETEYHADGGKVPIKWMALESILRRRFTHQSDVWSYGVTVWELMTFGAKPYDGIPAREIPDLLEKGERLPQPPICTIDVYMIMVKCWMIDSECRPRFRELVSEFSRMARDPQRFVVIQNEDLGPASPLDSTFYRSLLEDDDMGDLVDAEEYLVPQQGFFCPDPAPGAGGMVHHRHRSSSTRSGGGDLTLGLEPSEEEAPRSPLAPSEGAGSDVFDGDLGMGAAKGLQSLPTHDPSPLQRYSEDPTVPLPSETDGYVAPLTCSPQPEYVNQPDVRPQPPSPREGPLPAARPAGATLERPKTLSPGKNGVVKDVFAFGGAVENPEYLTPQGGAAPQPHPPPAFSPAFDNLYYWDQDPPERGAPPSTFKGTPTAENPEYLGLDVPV

Row | SMILES | GI50 (BaF3_EGFRWT cells) [nM] | GI50 (BaF3_HER2YVMA cells) [nM] | IC50 (wtEGFR) [nM] | IC50 [1] [nM] | GI50 (BaF3_HER2WT cells) [nM]
1 | Cc1cc(Nc2ncnn3ccc(C4CCN(C(=O)CCCN(C)C)CC4)c23)ccc1Oc1ccn2ncnc2c1 [Example 23, 1-(4-(4-((4-([1,2,4]triazolo[1,5-a]pyridin-7-yloxy)-3-methylphenyl)amino)pyrrolo[2,1-f][1,2,4]triazin-5-yl)piperidin-1-yl)-4-(dimethylamino)butan-1-one] | 1500 to 5000 | 1500 to 5000 | 500 to 1500 | < 200 | 500 to 1500
2 | Cc1cc(Nc2ncnn3ccc(C4CN(C(=O)/C=C/CN)C4)c23)ccc1Oc1ccn2ncnc2c1 [Example 87, (E)-1-(3-(4-((4-([1,2,4]triazolo[1,5-a]pyridin-7-yloxy)-3-methylphenyl)amino)pyrrolo[2,1-f][1,2,4]triazin-5-yl)azetidin-1-yl)-4-aminobut-2-en-1-one] | 1500 to 5000 | 1500 to 5000 | 200 to 500 | < 200 | 1500 to 5000
3 | Cc1cc(Nc2ncnn3ccc(C4CN(C(=O)/C=C/CN5CC(F)(F)C5)C4)c23)ccc1Oc1ccn2ncnc2c1 [Example 91, (E)-1-(3-(4-((4-([1,2,4]triazolo[1,5-a]pyridin-7-yloxy)-3-methylphenyl)amino)pyrrolo[2,1-f][1,2,4]-triazin-5-yl)azetidin-1-yl)-4-(3,3-difluoroazetidin-1-yl)but-2-en-1-one] | 1500 to 5000 | 500 to 1500 | 500 to 1500 | < 200 | < 200
4 | Cc1cc(Nc2ncnn3ccc(C4CCCN(C(=O)/C=C/CN(C)C)CC4)c23)ccc1Oc1ccn2ncnc2c1 (centres unmarked) [Example 93, (E)-1-(4-(4-((4-([1,2,4]triazolo[1,5-a]pyridin-7-yloxy)-3-methylphenyl)amino)pyrrolo[2,1-f][1,2,4]triazin-5-yl)azepan-1-yl)-4-(dimethylamino)but-2-en-1-one] | 1500 to 5000 | < 200 | 200 to 500 | < 200 | < 200
5 | Cc1cc(Nc2ncnn3ccc(C4CC5(C4)CN(C(=O)/C=C/CN(C)C)C5)c23)ccc1Oc1ccn2ncnc2c1 [Example 95, (E)-1-(6-(4-((4-([1,2,4]triazolo[1,5-a]pyridin-7-yloxy)-3-methylphenyl)amino)pyrrolo[2,1-f][1,2,4]triazin-5-yl)-2-azaspiro[3.3]heptan-2-yl)-4-(dimethylamino)but-2-en-1-one] | 1500 to 5000 | 500 to 1500 | 200 to 500 | < 200 | 200 to 500
6 | Cc1cc(Nc2ncnn3ccc(C4CCCN(C(=O)/C=C/CN(C)C)C4)c23)ccc1Oc1ccn2ncnc2c1 (centres unmarked) [Example 96, (E)-1-(3-(4-((4-([1,2,4]triazolo[1,5-a]pyridin-7-yloxy)-3-methylphenyl)amino)-pyrrolo-[2,1-f][1,2,4]-triazin-5-yl)piperidin-1-yl)-4-(dimethylamino)but-2-en-1-one] | 1500 to 5000 | 500 to 1500 | 500 to 1500 | < 200 | < 200
7 | Cc1cc(Nc2ncnn3ccc(C4CN(C(=O)/C=C/CN5CCC5)C4)c23)ccc1Oc1ccn2ncnc2c1 [Example 102, (E)-1-(3-(4-((4-([1,2,4]triazolo[1,5-a]pyridin-7-yloxy)-3-methylphenyl)amino)pyrrolo[2,1-f][1,2,4]triazin-5-yl)azetidin-1-yl)-4-(azetidin-1-yl)but-2-en-1-one] | 1500 to 5000 | 1500 to 5000 | 1500 to 5000 | < 200 | 500 to 1500
8 | Cc1cc(Nc2ncnn3ccc(-c4cnn(CCNC(=O)/C=C/CN(C)C)c4)c23)ccc1Oc1ccn2ncnc2c1 [Example 103, (E)-N-(2-(4-(4-((4-([1,2,4]triazolo[1,5-a]pyridin-7-yloxy)-3-methylphenyl)amino)pyrrolo[2,1-f][1,2,4]triazin-5-yl)-1H-pyrazol-1-yl)ethyl)-4-(dimethylamino)but-2-enamide] | 1500 to 5000 | 1500 to 5000 | 1500 to 5000 | 200 to 500 | 1500 to 5000
9 | C=CC(=O)N1CCC2(C1)CN(c1ccn3ncnc(Nc4ccc(Oc5ccn6ncnc6c5)c(C)c4)c13)C2 [Example 155, 1-(2-{4-[(3-methyl-4-{[1,2,4]triazolo[1,5-a]pyridin-7-yloxy}phenyl)amino]pyrrolo[2,1-f][1,2,4]triazin-5-yl}-2,6-diazaspiro[3.4]octan-6-yl)prop-2-en-1-one] | 1500 to 5000 | 200 to 500 | 1500 to 5000 | < 200 | < 200
10 | Cc1cc(Nc2ncnn3ccc(N4CC5(CCN(C(=O)/C=C/CN(C)C)C5)C4)c23)ccc1Oc1ccn2ncnc2c1 [Example 156, (2E)-4-(dimethylamino)-1-(2-{4-[(3-methyl-4-{[1,2,4]triazolo[1,5-a]pyridin-7-yloxy}phenyl)amino]pyrrolo[2,1-f][1,2,4]triazin-5-yl}-2,6-diazaspiro[3.4]octan-6-yl)but-2-en-1-one] | 1500 to 5000 | 1500 to 5000 | 500 to 1500 | < 200 | 200 to 500
11 | Cc1cc(Nc2ncnn3ccc(C(=O)NCCCN(C)C)c23)ccc1Oc1ccn2ncnc2c1 [Example 178, 4-((4-([1,2,4]triazolo[1,5-a]pyridin-7-yloxy)-3-methylphenyl)amino)-N-(3-(dimethylamino)-propyl)pyrrolo[2,1-f][1,2,4]triazine-5-carboxamide] | > 5000 | 1500 to 5000 | 500 to 1500 | < 200 | 200 to 500

The next lines start with the values.

Row | GI50 (BaF3_EGFRWT cells) [nM] | GI50 (BaF3_HER2YVMA cells) [nM] | IC50 (wtEGFR) [nM] | IC50 [1] [nM] | GI50 (BaF3_HER2WT cells) [nM] | SMILES
12 | 1500 to 5000 | < 200 | 200 to 500 | < 200 | < 200 | C=CC(=O)NC1CN(c2ccn3ncnc(Nc4ccc(Oc5ccn6ncnc6c5)c(C)c4)c23)C1 [Example 14, N-(1-(4-((4-([1,2,4]triazolo[1,5-a]pyridin-7-yloxy)-3-methylphenyl)amino)pyrrolo[2,1-f][1,2,4]triazin-5-yl)azetidin-3-yl)acrylamide]
13 | 1500 to 5000 | 500 to 1500 | 1500 to 5000 | < 200 | 200 to 500 | C=CC(=O)N1CC2(C1)CN(c1ccn3ncnc(Nc4ccc(Oc5ccn6ncnc6c5)c(C)c4)c13)C2 [Example 16, 1-(6-(4-((4-([1,2,4]triazolo[1,5-a]pyridin-7-yloxy)-3-methylphenyl)amino)pyrrolo[2,1-f][1,2,4]triazin-5-yl)-2,6-diazaspiro[3.3]heptan-2-yl)prop-2-en-1-one]
14 | 1500 to 5000 | 500 to 1500 | 1500 to 5000 | < 200 | 200 to 500 | C=C(F)C(=O)NC1CN(c2ccn3ncnc(Nc4ccc(Oc5ccn6ncnc6c5)c(C)c4)c23)C1 [Example 18, N-(1-(4-((4-([1,2,4]triazolo[1,5-a]pyridin-7-yloxy)-3-methylphenyl)amino)pyrrolo[2,1-f][1,2,4]triazin-5-yl)azetidin-3-yl)-2-fluoroacrylamide]
15 | 1500 to 5000 | 500 to 1500 | 1500 to 5000 | 200 to 500 | 200 to 500 | C=C(F)C(=O)N1CC(n2cc(-c3ccn4ncnc(Nc5ccc(Oc6ccn7ncnc7c6)c(C)c5)c34)cn2)C1 [Example 19, 1-(3-(4-(4-((4-([1,2,4]triazolo[1,5-a]pyridin-7-yloxy)-3-methylphenyl)amino)pyrrolo[2,1-f][1,2,4]triazin-5-yl)-1H-pyrazol-1-yl)azetidin-1-yl)-2-fluoroprop-2-en-1-one]
16 | 1500 to 5000 | < 200 | 500 to 1500 | < 200 | < 200 | Cc1cc(Nc2ncnn3ccc(N4CCN(C(=O)/C=C/CN(C)C)CC4)c23)ccc1Oc1ccn2ncnc2c1 [Example 22, (E)-1-(4-(4-((4-([1,2,4]triazolo[1,5-a]pyridin-7-yloxy)-3-methylphenyl)amino)pyrrolo[2,1-f][1,2,4]triazin-5-yl)piperazin-1-yl)-4-(dimethylamino)but-2-en-1-one]

Reference: patent US20240132521A1, “COMPOUNDS AND METHODS FOR MODULATING HER2” (Iambic Therapeutics, Inc., priority 2022, published 2024)
